The text below walks through data of US20230079439A1, “Compositions and Methods for Enhancing Beta Cell Maturation, Health and Function” (THE REGENTS OF THE UNIVERSITY OF CALIFORNIA, priority 2016, published 2023).

The subject of test [1] is INS-1E cells. As to the kind of experiment: Glucose-stimulated insulin secretion (GSIS) in INS-1E cells. The test is classed as cell-based, rat. The procedure:
FIG. 3, comprising FIG. 3A through FIG. 3D, depicts the evaluation of the biological activity of HSA-112 in INS-1E cells. FIG. 3A depicts a dose-response analysis of the effect of HSA-112 on the rate of insulin secretion in INS-1E cells. The INS-1E cells were grown and treated with increasing doses of HSA-112 for 24 h, as described in Methods. Subsequently, cells were mixed with different concentrations of HSA-112, as indicated in the graph (red columns), PEG2000 (green columns), and free peptide (blue columns) and were seeded in 12-well plates. After 24 h the cells were taken to a GSIS in the presence of 2.5 mM (weak color bars) or 16.7 mM (strong color bars) glucose. FIG. 3B depicts the time-course analysis of the effect of HSA-112 on the rate of insulin secretion in INS-1E cells. The INS-1E cells were prepared for the experiment as described above with 50 μM of HSA-112, PEG2000, or free peptide. After incubation, as indicated in the graph, the cells were taken to a GSIS as described above. FIG. 3C depicts the cell protective effect of HSA-112 under oxidative stress conditions. Cells were prepared for the experiment as described in Methods. Trolox was used as a positive control at a concentration of 100 μM. The oxidative stress was induced in the tissue culture, as described in Methods. Standard MTT analysis (also described in Methods) was used for evaluating the effect of HSA-112 on cell viability. FIG. 3D depicts INS-1E cell proliferation. Cells were prepared for the experiment as described above. After 24 h the cells were colored by trypan blue and counted as described in Methods *p<0.05, n=6. MEAN±SE.
FIG. 7, comprising FIG. 7A through FIG. 7G, depicts the evaluation of the biological activity of HSA-28P in INS-1E cells. FIG. 7A depicts dose-response analysis of the effect of HSA-28P on the rate of insulin secretion in INS-1E cells. The INS-1E cells were grown and trypsinized as described in Methods. Subsequently, cells were mixed with the indicated concentrations of HSA-28P (red columns), non-relevant peptide nanoparticles (NRPNP, green columns), and naked nanoparticles (NP, blue columns) and were seeded in 12-well plates. After 24 h the cells were taken to a GSIS in the presence of 2.5 mM (weak color bars) or 16.7 mM (strong color bars) glucose. FIG. 7B depicts time-course analysis of the effect of HSA-28P on the rate of insulin secretion in INS-1E cells. The INS-1E cells were prepared for the experiment as described above with 1.34 μM of both HSA-28P or NRPNP, and 0.76 μg/ml of NP. After incubation for the time indicated in the graph, the cells were taken to a GSIS as described in Methods. FIG. 7C depicts the measurement of insulin content. The RIA-assay was performed for INS-1E lysates. FIG. 7D depicts the Effect of HSA-28P on the cells viability under oxidative stress conditions. INS-1E cells were incubated for 24 h with a medium supplemented with HSA-28P (3 μM), or HSA-28P1/2 (1.5 μM), or NPs covered by phantom random peptide (PPNP, 3 μM), or NP (0.76 μg/ml), or HSA-28 (3 μM) and trolox, as a positive antioxidant control (1 mM). After the incubation time, 50 mU/ml of glucose oxidase (GO) was added for an additional 1.15 h. Upon completion of the experiments, a standard MTT assay was conducted as described in Methods. Cell viability is presented as a percentage in comparison to non-treated cells. FIG. 7E depicts the effect of HSA-28P on the cell proliferation rate. Experiments were conducted on INS-1E cells that were seeded in 6-well plates. INS-1E cells were treated as described in Panel D. Cells were detached by trypsin and counted as described in Methods and then were visualized with a Cells Sense Live Imaging microscope. FIG. 7F depicts light microscope images of untreated cells. FIG. 7G depicts light microscope images of cells that were treated with HSA-28P. *p<0.05, n=3. MEAN±SE. […]

The test system of test [2] is INS-1E cells. As to the kind of experiment: Insulin secretion of INS-1E cells after 5 h incubation with peptidomimetic agent. The test is classed as cell-based, rat. The protocol: FIG. 22, comprising FIG. 22A through FIG. 22C, depicts experimental results of incubation of INS1E cells with peptidomimetic agent. A peptidomimetic agent was designed to mimic neuroligin's binding site for neurexin. Monomers and dimers had no effect on insulin secretion. Multiple dimers were conjugated to PEG-2000 to simulate clustering (reagent HSA-112). Dimers were also clustered on nanoparticles (HSA-637). FIG. 22A depicts INS-1E cells were incubated for 5 h with HSA-112 (blue columns) or HSA-637 (purple) at different concentrations or with vehicle alone (black), washed, and then tested for insulin secretion at 3 mM glucose (striped columns) or at 20 mM glucose (solid columns). […] FIG. 22B depicts a time course: insulin secretion was analyzed after the number of hours indicated following a 5 h incubation with 100 μM HSA-112 (blue), 500 nM HSA-637 (purple) or vehicle alone (black). Incubations were with 3 mM glucose (striped columns) or 20 mM glucose (solid columns). FIG. 22C depicts microscopy where INS-1E cells were incubated with HSA-637 conjugated to a fluorescent dye (Cy5, red) and then washed. Membranes were stained with Alexa Fluor 488 (green). For better visualization, microscopy was in hypotonic saline causing the INS-1E cells to swell and become more rounded.

Ends that are not written are not given here.

With “HSA-112: HSA-28 dimer formed by bridging two HSA-28 monomers via amide bond formation with active ester PEG2,000 (QQGEFLNYD-NH2; not fully specified (N-terminus); also: dimer of two HSA-28 monomers bridged via amide bonds with active ester PEG2000)”, in the test on INS-1E cells [1] (50 μM), the “duration of the increase in insulin secretion” value amounted to 24 h, the “time after which a significant increase in insulin secretion was induced” value turned out to be 6 h and the “time of maximal stimulatory effect” value is reported as 18 h. Moreover, the “maximal stimulatory effect on GSIS parameters” value in the test on INS-1E cells [1] (50 μM, after 18 h) is “twofold elevation of GSIS parameters”. The “effect on GSIS” value in the test with INS-1E cells [1] (INS-1E cells, 2.5 mM or 16.7 mM glucose) is reported as “dose-dependently increased GSIS”. For the same substance, in the test with INS-1E cells [2] (5 h incubation, 20 mM glucose, p<0.05), the “concentration that significantly increased glucose-stimulated insulin secretion” value was no less than 20 µM. Besides, the “effect on insulin secretion” value in the test with INS-1E cells [2] (INS-1 β cells) was “increased insulin secretion in a dose-dependent manner”.
